Drawing on US9637491B2, “Pyrazolo[4,3-D]pyrimidines as kinase inhibitors” (Origenis GmbH, priority 2012, dated 2017), this text covers IC50 for 34 molecules.

The target in the experiment is T1, SYK kinase (Homo sapiens, UniProt P43405).
T1 construct: purchased Invitrogen, Carlsbad
As to the kind of experiment: SYK assay (OMNIA Kinase Assay, Invitrogen). It counts as biochemical. As to conditions: SYK Activities; 1 mM ATP, 10 μM Omnia Peptide Substrate Tyr 7, 30° C. The method, then: In the assay OMNIA® KINASE ASSAY by Invitrogen Corporation (Carlsbad) the effect of invention of a compound on the phosphorylation is determined by measurement of fluorescence intensity of a chelation-enhanced fluorophore called SOX. Upon phosphorylation of the peptide by the kinase of interest, Mg2+ is chelated to form a bridge between the SOX moiety and the phosphate group that is transferred to the specific tyrosine on the peptide. The fluorescence intensity is directly proportional to the amount of peptide phosphorylation.
To the wells of an 384 well small volume plate (Greiner, Frickenhausen) are added (i) the compound under test in 5% DMSO/distilled water (2 μl), (ii) 16 μl of the master mix containing ATP, DTT, Kinase Reaction Buffer, Omina Peptide Substrate Tyr 7 resulting in a final concentration of 1 mM ATP, 0.2 mM DTT and 10 μM Peptide Substrate. The Master Mix and the assay plate was incubated to reaction temperature before the measurement (30° C.). The reaction was started with addition of (iii) 2 μl 4 μg/ml SYK kinase (Invitrogen, Carlsbad). During measurement fluorescence intensitiy readings were collected using a TECAN M1000 at a wavelength of λex 360/λem 485 nm every 30 s for 30 minutes. The reaction velocity was plotted versus the inhibitor concentration to determine the IC50 using XLFit 5.0 (IDBS, Guildford) to fit to a sigmoidal dose response curve.
With `COc1ccc(Nc2nc(-c3ccccc3NS(C)(=O)=O)nc3cn[nH]c23)cc1OC` [Example 2, N-(2-(7-((3,4-dimethoxyphenyl)amino)-1H-pyrazolo[4,3-d]pyrimidin-5-yl)phenyl)methanesulfonamide], the IC50 was 100 to 1000 nM.

In turn, `COc1ccc(Nc2nc(-c3ccc(C)s3)nc3cn[nH]c23)cc1OC` [Example 8, N-(3,4-dimethoxyphenyl)-5-(5-methylthiophen-2-yl)-1H-pyrazolo[4,3-d]pyrimidin-7-amine] yielded an IC50 of 100 to 1000 nM.

`Cc1ccc(-c2nc(Nc3ccc(N4CCOCC4)cc3)c3[nH]ncc3n2)s1` [Example 9, 5-(5-methylthiophen-2-yl)-N-(4-morpholinophenyl)-1H-pyrazolo[4,3-d]pyrimidin-7-amine]: the IC50 is 10 to 100 nM.

Consider `CC(C)(C)N1CCN(c2ccc(Nc3nc(-c4c(F)cccc4F)nc4cn[nH]c34)cc2)CC1` [Example 10, N-(4-(4-(tert-butyl)piperazin-1-yl)phenyl)-5-(2,6-difluorophenyl)-1H-pyrazolo[4,3-d]pyrimidin-7-amine], for which the IC50 was 10 to 100 nM.

Molecule `Fc1cc(Nc2nc(-c3c(F)cccc3F)nc3cn[nH]c23)ccc1N1CCOCC1` [Example 11, 5-(2,6-difluorophenyl)-N-(3-fluoro-4-morpholinophenyl)-1H-pyrazolo[4,3-d]pyrimidin-7-amine] returned a 50% inhibitory concentration (IC50) of 100 to 1000 nM.

Regarding `COc1cc(Nc2nc(-c3c(F)cccc3F)nc3cn[nH]c23)ccc1N1CCOCC1` [Example 12, 5-(2,6-difluorophenyl)-N-(3-methoxy-4-morpholinophenyl)-1H-pyrazolo[4,3-d]pyrimidin-7-amine], the concentration for half-maximal inhibition (IC50) was under 10 nM.

In turn, `CC(=O)N1CCN(c2ccc(Nc3nc(-c4c(F)cccc4F)nc4cn[nH]c34)cc2)CC1` [Example 13, 1-(4-(4-((5-(2,6-difluorophenyl)-1H-pyrazolo[4,3-d]pyrimidin-7-yl)amino)phenyl)piperazin-1-yl)ethan-1-one] registered a concentration for half-maximal inhibition (IC50) of 100 to 1000 nM.

The molecule `CC(=O)N1CCN(c2ccc(Nc3nc(-c4cccc(N)c4)nc4cn[nH]c34)cc2)CC1` [Example 14, 1-(4-(4-((5-(3-aminophenyl)-1H-pyrazolo[4,3-d]pyrimidin-7-yl)amino)phenyl)piperazin-1-yl)ethan-1-one] had an IC50 of 100 to 1000 nM.

In turn, `O=S1(=O)CCc2ccc(Nc3nc(-c4cccs4)nc4cn[nH]c34)cc21` [Example 17, 6-((5-(thiophen-2-yl)-1H-pyrazolo[4,3-d]pyrimidin-7-yl)amino)-2,3-dihydrobenzo[b]thiophene 1,1-dioxide] returned an IC50 of 100 to 1000 nM.

`c1cc(N2CCOCC2)ccc1Nc1nc(C2CC2)nc2cn[nH]c12` [Example 18, 5-cyclopropyl-N-(4-morpholinophenyl)-1H-pyrazolo[4,3-d]pyrimidin-7-amine] returned a half-inhibitory concentration (IC50) of under 10 nM.

`COc1ccc(Nc2nc(C3CC3)nc3cn[nH]c23)cc1OC` [Example 19, 5-cyclopropyl-N-(3,4-dimethoxyphenyl)-1H-pyrazolo[4,3-d]pyrimidin-7-amine] gave an IC50 of 10 to 100 nM.

`O=C1COc2ccc(Nc3nc(C4CC4)nc4cn[nH]c34)cc2N1` [Example 21, 6-((5-cyclopropyl-1H-pyrazolo[4,3-d]pyrimidin-7-yl)amino)-2H-benzo[b][1,4]oxazin-3(4H)-one]: the IC50 was in the range of 10 to 100 nM.

As for `O=C1CCc2ccc(Nc3nc(C4CC4)nc4cn[nH]c34)cc2N1` [Example 22, 7-((5-cyclopropyl-1H-pyrazolo[4,3-d]pyrimidin-7-yl)amino)-3,4-dihydroquinolin-2(1H)-one], the IC50 was under 10 nM.

`CC(C)(C)N1CCN(c2ccc(Nc3nc(-c4ccccc4F)nc4cn[nH]c34)cc2)CC1` [Example 23, N-(4-(4-(tert-butyl)piperazin-1-yl)phenyl)-5-(2-fluorophenyl)-1H-pyrazolo[4,3-d]pyrimidin-7-amine] had an IC50 of 100 to 1000 nM.

`Fc1ccccc1-c1nc(Nc2ccc(N3CCOCC3)c(F)c2)c2[nH]ncc2n1` [Example 24, N-(3-fluoro-4-morpholinophenyl)-5-(2-fluorophenyl)-1H-pyrazolo[4,3-d]pyrimidin-7-amine] registered a concentration for half-maximal inhibition (IC50) of 100 to 1000 nM.

For `COc1cc(Nc2nc(-c3ccccc3F)nc3cn[nH]c23)ccc1N1CCOCC1` [Example 25, 5-(2-fluorophenyl)-N-(3-methoxy-4-morpholinophenyl)-1H-pyrazolo[4,3-d]pyrimidin-7-amine], the IC50 is 10 to 100 nM.

Molecule `CC(=O)N1CCN(c2ccc(Nc3nc(-c4ccccc4F)nc4cn[nH]c34)cc2)CC1` [Example 26, 1-(4-(4-((5-(2-fluorophenyl)-1H-pyrazolo[4,3-d]pyrimidin-7-yl)amino)phenyl)piperazin-1-yl)ethan-1-one] registered an IC50 of 100 to 1000 nM.

`CC(C)(C#N)c1ccc(Nc2nc(-c3c(F)cccc3F)nc3cn[nH]c23)cc1` [Example 28, 2-(4-((5-(2,6-difluorophenyl)-1H-pyrazolo[4,3-d]pyrimidin-7-yl)amino)phenyl)-2-methylpropanenitrile] yielded an IC50 of 100 to 1000 nM.

With `CN1CCN(C2CCN(c3ccc(Nc4nc(-c5ccccc5NS(C)(=O)=O)nc5cn[nH]c45)cc3)CC2)CC1` [Example 29, N-(2-(7-((4-(4-(4-methylpiperazin-1-yl)piperidin-1-yl)phenyl)amino)-1H-pyrazolo[4,3-d]pyrimidin-5-yl)phenyl)methanesulfonamide], the half-inhibitory concentration (IC50) was 10 to 100 nM.

Regarding `CC(=O)N1CCN(c2ccc(Nc3nc(C4CC4)nc4cn[nH]c34)cc2)CC1` [Example 33, 1-(4-(4-((5-cyclopropyl-1H-pyrazolo[4,3-d]pyrimidin-7-yl)amino)phenyl)piperazin-1-yl)ethan-1-one], the IC50 was in the range of 100 to 1000 nM.

As to `Fc1cc(Nc2nc(C3CC3)nc3cn[nH]c23)ccc1N1CCOCC1` [Example 34, 5-cyclopropyl-N-(3-fluoro-4-morpholinophenyl)-1H-pyrazolo[4,3-d]pyrimidin-7-amine], the IC50 lay within 100 to 1000 nM.

Molecule `COc1cc(Nc2nc(C3CC3)nc3cn[nH]c23)ccc1N1CCOCC1` [Example 35, 5-cyclopropyl-N-(3-methoxy-4-morpholinophenyl)-1H-pyrazolo[4,3-d]pyrimidin-7-amine] came in with an IC50 of under 10 nM.

`COc1cc(Nc2nc(-c3cccs3)nc3cn[nH]c23)ccc1N1CCOCC1` [Example 37, N-(3-methoxy-4-morpholinophenyl)-5-(thiophen-2-yl)-1H-pyrazolo[4,3-d]pyrimidin-7-amine] came in with a 50% inhibitory concentration (IC50) of 100 to 1000 nM.

Molecule `O=C1OCCN1c1ccc(Nc2nc(-c3cccs3)nc3cn[nH]c23)cc1` [Example 38] showed a half-maximal inhibitory concentration (IC50) of 100 to 1000 nM.

The molecule `CC(C)(C)N1CCN(c2ccc(Nc3nc(-c4cccc(NS(C)(=O)=O)c4)nc4cn[nH]c34)cc2)CC1` [Example 39] showed a concentration for half-maximal inhibition (IC50) of 100 to 1000 nM.

In turn, `COc1cc(Nc2nc(-c3cccc(NS(C)(=O)=O)c3)nc3cn[nH]c23)ccc1N1CCOCC1` [Example 41, N-(3-(7-((3-methoxy-4-morpholinophenyl)amino)-1H-pyrazolo[4,3-d]pyrimidin-5-yl)phenyl)methanesulfonamide] yielded a half-inhibitory concentration (IC50) of 100 to 1000 nM.

With `CC(C)(C)N1CCN(c2ccc(Nc3nc(-c4ccc5cn[nH]c5c4)nc4cn[nH]c34)cc2)CC1` [Example 45, N-(4-(4-(tert-butyl)piperazin-1-yl)phenyl)-5-(1H-indazol-6-yl)-1H-pyrazolo[4,3-d]pyrimidin-7-amine], the IC50 was under 10 nM.

`Fc1cc(Nc2nc(-c3ccc4cn[nH]c4c3)nc3cn[nH]c23)ccc1N1CCOCC1` [Example 46, N-(3-fluoro-4-morpholinophenyl)-5-(1H-indazol-6-yl)-1H-pyrazolo[4,3-d]pyrimidin-7-amine]: the half-maximal inhibitory concentration (IC50) fell in the range of 10 to 100 nM.

The molecule `c1nc(-c2nc(Nc3ccc(N4CCOCC4)cc3)c3[nH]ncc3n2)co1` [Example 48, N-(4-morpholinophenyl)-5-(oxazol-4-yl)-1H-pyrazolo[4,3-d]pyrimidin-7-amine] displayed a half-maximal inhibitory concentration (IC50) of 100 to 1000 nM.

The molecule `CC(C)(C)N1CCN(c2ccc(Nc3nc(-c4cocn4)nc4cn[nH]c34)cc2)CC1` [Example 49, N-(4-(4-(tert-butyl)piperazin-1-yl)phenyl)-5-(oxazol-4-yl)-1H-pyrazolo[4,3-d]pyrimidin-7-amine] showed an IC50 of 10 to 100 nM.

Molecule `CC(=O)N1CCN(c2ccc(Nc3nc(-c4ccc5cn[nH]c5c4)nc4cn[nH]c34)cc2)CC1` [Example 50, 1-(4-(4-((5-(1H-indazol-6-yl)-1H-pyrazolo[4,3-d]pyrimidin-7-yl)amino)phenyl)piperazin-1-yl)ethan-1-one] displayed an IC50 of under 10 nM.

Molecule `COc1ccc(Nc2nc(-c3sccc3C)nc3cn[nH]c23)cc1OC` [Example 51, N-(3,4-dimethoxyphenyl)-5-(3-methylthiophen-2-yl)-1H-pyrazolo[4,3-d]pyrimidin-7-amine] came in with an IC50 of 10 to 100 nM.

The molecule `Cc1ccsc1-c1nc(Nc2ccc(N3CCOCC3)cc2)c2[nH]ncc2n1` [Example 52, 5-(3-methylthiophen-2-yl)-N-(4-morpholinophenyl)-1H-pyrazolo[4,3-d]pyrimidin-7-amine] had a half-inhibitory concentration (IC50) of 10 to 100 nM.

Molecule `CN1CCN(C2CCN(C(=O)c3ccc(Nc4nc(C5CC5)nc5cn[nH]c45)cc3)CC2)CC1` [Example 53, (4-((5-cyclopropyl-1H-pyrazolo[4,3-d]pyrimidin-7-yl)amino)phenyl)(4-(4-methylpiperazin-1-yl)piperidin-1-yl)methanone] returned a half-inhibitory concentration (IC50) of 100 to 1000 nM.

In general, IC50 refers to the concentration at which inhibition is half-maximal. A low value points to greater potency in that assay.
